US10519134B2, “Pyrazole compounds and methods of making and using same” (Lundbeck La Jolla Research Center, Inc., priority 2015, dated 2019)

Experiments:
[1] = biological target: T1, MAGL (Mus musculus, UniProt O35678); assay: In vitro competitive activity-based protein profiling (mouse), MAGL gel band; type: biochemical; settings: for IC50: mouse; for inhibition at 1 µM: read-out: MAGL % inh. 1 μM
T1 construct: Proteomes (mouse brain membrane fraction or cell lysates); from tissue; host or cells: mouse brain membrane fraction (or cell lysates)
T1 sequence (O35678 1-303): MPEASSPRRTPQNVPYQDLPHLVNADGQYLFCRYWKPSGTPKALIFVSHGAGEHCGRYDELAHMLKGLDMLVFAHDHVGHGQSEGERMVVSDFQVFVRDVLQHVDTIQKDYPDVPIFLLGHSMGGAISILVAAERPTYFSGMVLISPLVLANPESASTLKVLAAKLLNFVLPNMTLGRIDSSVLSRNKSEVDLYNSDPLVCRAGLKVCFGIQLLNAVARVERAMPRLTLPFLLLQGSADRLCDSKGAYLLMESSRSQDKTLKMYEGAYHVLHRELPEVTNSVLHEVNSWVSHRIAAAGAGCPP
Experimental: (§1) In Vitro Competitive Activity-Based Protein Profiling (Mouse).
(§2) Proteomes (mouse brain membrane fraction or cell lysates) (50 μL, 1.0 mg/mL total protein concentration) were preincubated with varying concentrations of inhibitors at 37° C. After 30 min, FP-Rh or HT-01 (1.0 μL, 50 μM in DMSO) was added and the mixture was incubated for another 30 min at 37° C. Reactions were quenched with SDS loading buffer (15 μL—4×) and run on SDS-PAGE. Following gel imaging, serine hydrolase activity was determined by measuring fluorescent intensity of gel bands corresponding to MAGL, ABHD6, and FAAH, using ImageJ 1.43u software.

[2] = biological target: T2, FAAH (Mus musculus, UniProt O08914); assay: In vitro competitive activity-based protein profiling (mouse), FAAH gel band; type: biochemical; settings: for IC50: mouse; for inhibition at 1 µM: read-out: FAAH % inh. 1 μM
T2 construct: Proteomes (mouse brain membrane fraction or cell lysates); from tissue; host or cells: mouse brain membrane fraction (or cell lysates)
T2 sequence (O08914 1-579): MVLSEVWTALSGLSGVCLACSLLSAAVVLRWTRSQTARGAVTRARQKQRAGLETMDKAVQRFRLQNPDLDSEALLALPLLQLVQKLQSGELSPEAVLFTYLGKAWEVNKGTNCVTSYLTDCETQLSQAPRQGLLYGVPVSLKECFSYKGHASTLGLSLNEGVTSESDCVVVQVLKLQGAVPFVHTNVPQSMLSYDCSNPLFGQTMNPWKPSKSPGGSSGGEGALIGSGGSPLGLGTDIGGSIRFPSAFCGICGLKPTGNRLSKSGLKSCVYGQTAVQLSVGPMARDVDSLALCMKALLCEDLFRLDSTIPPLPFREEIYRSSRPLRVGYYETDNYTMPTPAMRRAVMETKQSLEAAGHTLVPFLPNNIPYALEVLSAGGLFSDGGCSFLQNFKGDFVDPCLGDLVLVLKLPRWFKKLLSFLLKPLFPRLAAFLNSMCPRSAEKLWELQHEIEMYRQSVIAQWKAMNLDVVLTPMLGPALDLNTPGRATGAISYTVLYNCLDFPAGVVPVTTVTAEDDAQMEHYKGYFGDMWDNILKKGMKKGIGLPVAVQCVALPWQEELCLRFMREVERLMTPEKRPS
Experimental: as §1, §2

Compound | IC50 [1] | inhibition at 1 µM [1] | IC50 [2] | inhibition at 1 µM [2]
CC(=O)Nc1ccn(C(=O)N2CCC3(CCCN3Cc3ccc(C(F)(F)F)c(C(=O)O)c3)CC2)n1 [Example 108, 5-((8-(3-acetamido-1H-pyrazole-1-carbonyl)-1,8-diazaspiro[4.5]decan-1-yl)methyl)-2-(trifluoromethyl)benzoic Acid] |  | 50 to 75% |  | 0 to 25%
CC(=O)Nc1ccn(C(=O)N2CCC3(CCCN3Cc3ccc(C(=O)O)c(C(F)(F)F)c3)CC2)n1 [Example 110, 4-((8-(3-acetamido-1H-pyrazole-1-carbonyl)-1,8-diazaspiro[4.5]decan-1-yl)methyl)-2-(trifluoromethyl)benzoic Acid] |  | ≥ 75% |  | 0 to 25%
CC(=O)Nc1ccn(C(=O)N2CCN(Cc3ccc(C#N)cc3-c3nnn[nH]3)CC2)n1 [Example 115, N-(1-(4-(4-cyano-2-(1H-tetrazol-5-yl)benzyl)piperazine-1-carbonyl)-1H-pyrazol-3-yl)acetamide] | 100 to 1000 nM | ≥ 75% | 1000 to 10000 nM | 0 to 25%
CC(=O)N1CC2(CCN(c3ccccc3CN3CCN(C(=O)n4ccc(NS(C)(=O)=O)n4)CC3)C2)C1 [Example 122, N-(1-(4-(2-(2-acetyl-2,6-diazaspiro[3.4]octan-6-yl)benzyl)piperazine-1-carbonyl)-1H-pyrazol-3-yl) methanesulfonamide] |  | 50 to 75% |  | 0 to 25%
CS(=O)(=O)Nc1ccn(C(=O)N2CCC3(CCCN3Cc3ccc(C(F)(F)F)cc3N3CCOCC3)CC2)n1 [Example 126, N-(1-(1-(2-morpholino-4-(trifluoromethyl)benzyl)-1,8-diazaspiro[4.5]decane-8-carbonyl)-1H-pyrazol-3-yl)methanesulfonamide] |  | ≥ 75% |  | 0 to 25%
CS(=O)(=O)Nc1ccn(C(=O)N2CCN(Cc3ccc(Cl)cc3N3CCCCC3)CC2)n1 [Example 128, N-(1-(4-(4-chloro-2-(piperidin-1-yl)benzyl)piperazine-1-carbonyl)-1H-pyrazol-3-yl) methanesulfonamide] | ≤ 100 nM | ≥ 75% | 1000 to 10000 nM | 0 to 25%
CS(=O)(=O)Nc1ccn(C(=O)N2CCC3(CCCN3Cc3ccc(Cl)cc3N3CCCC3)CC2)n1 [Example 131, N-(1-(1-(4-chloro-2-(pyrrolidin-1-yl)benzyl)-1,8-diazaspiro[4.5]decane-8-carbonyl)-1H-pyrazol-3-yl)methanesulfonamide] |  | 50 to 75% |  | 0 to 25%
CS(=O)(=O)Nc1ccn(C(=O)N2CCC3(CCCN3Cc3ccc(C(F)(F)F)cc3N3CCCCC3)CC2)n1 [Example 133, N-(1-(1-(2-(piperidin-1-yl)-4-(trifluoromethyl)benzyl)-1,8-diazaspiro[4.5]decane-8-carbonyl)-1H-pyrazol-3-yl)methanesulfonamide] | 100 to 1000 nM | ≥ 75% | 1000 to 10000 nM | 0 to 25%
CC(C)S(=O)(=O)Nc1ccn(C(=O)N2CCN(Cc3ccc(C(F)(F)F)cc3N3CCCC3)CC2)n1 [Example 134, N-(1-(4-(2-(pyrrolidin-1-yl)-4-(trifluoromethyl)benzyl)piperazine-1-carbonyl)-1H-pyrazol-3-yl)propane-2-sulfonamide] | 1000 to 10000 nM | 25 to 50% | 1000 to 10000 nM | 0 to 25%
Cc1ccc(CN2CCN(C(=O)n3ccc(NS(C)(=O)=O)n3)CC2)c(N2CCCCC2)c1 [Example 138, N-(1-(4-(4-methyl-2-(piperidin-1-yl)benzyl)piperazine-1-carbonyl)-1H-pyrazol-3-yl) methanesulfonamide] | 100 to 1000 nM | ≥ 75% | 1000 to 10000 nM | 0 to 25%
CS(=O)(=O)Nc1ccn(C(=O)N2CCC3(CCCN3Cc3ccc(Cl)cc3N3C[C@H]4CC[C@@H](C3)O4)CC2)n1 [Example 139, N-(1-(1-(2-((1R,5S)-8-oxa-3-azabicyclo[3.2.1]octan-3-yl)-4-chlorobenzyl)-1,8-diazaspiro[4.5]decane-8-carbonyl)-1H-pyrazol-3-yl) methanesulfonamide] | 100 to 1000 nM | ≥ 75% | 1000 to 10000 nM | 0 to 25%
CS(=O)(=O)Nc1ccn(C(=O)N2CCC3(CCCN3Cc3cccc(N4CCOCC4)c3Cl)CC2)n1 [Example 143, N-(1-(1-(2-chloro-3-morpholinobenzyl)-1,8-diazaspiro[4.5]decane-8-carbonyl)-1H-pyrazol-3-yl) methanesulfonamide] |  | 50 to 75% |  | 0 to 25%

Second part, the compound after the results:

IC50 [1] | inhibition at 1 µM [1] | IC50 [2] | inhibition at 1 µM [2] | Compound
≤ 100 nM | ≥ 75% | 1000 to 10000 nM | 0 to 25% | CC(=O)Nc1ccn(C(=O)N2CCC3(CCCN3Cc3ccc(N4CCCC4)c(Cl)c3)CC2)n1 [Example 100, N-(1-(1-(3-chloro-4-(pyrrolidin-1-yl)benzyl)-1,8-diazaspiro[4.5]decane-8-carbonyl)-1H-pyrazol-3-yl)acetamide]
 | ≥ 75% |  | 0 to 25% | Cc1cc(CN2CCCC23CCN(C(=O)n2ccc(NC(=O)C(F)(F)F)n2)CC3)ccc1Cl [Example 117, N-(1-(1-(4-chloro-3-methylbenzyl)-1,8-diazaspiro[4.5]decane-8-carbonyl)-1H-pyrazol-3-yl)-2,2,2-trifluoroacetamide]
 | 50 to 75% |  | 0 to 25% | CS(=O)(=O)Nc1ccn(C(=O)N2CCN(Cc3cc(C(F)(F)F)ccc3N3CCOCC3)CC2)n1 [Example 124, N-(1-(4-(2-morpholino-5-(trifluoromethyl)benzyl)piperazine-1-carbonyl)-1H-pyrazol-3-yl) methanesulfonamide]
≤ 100 nM | ≥ 75% | 1000 to 10000 nM | 0 to 25% | CS(=O)(=O)Nc1ccn(C(=O)N2CCN(Cc3ccc(C(F)(F)F)cc3N3CCCCC3)CC2)n1 [Example 129, N-(1-(4-(2-(piperidin-1-yl)-4-(trifluoromethyl)benzyl)piperazine-1-carbonyl)-1H-pyrazol-3-yl) methanesulfonamide]
 | 50 to 75% |  | 0 to 25% | CS(=O)(=O)Nc1ccn(C(=O)N2CCC3(CCCN3Cc3ccc(Cl)cc3N3CCCCC3)CC2)n1 [Example 132, N-(1-(1-(4-chloro-2-(piperidin-1-yl)benzyl)-1,8-diazaspiro[4.5]decane-8-carbonyl)-1H-pyrazol-3-yl)methanesulfonamide]
100 to 1000 nM | ≥ 75% | 1000 to 10000 nM | 0 to 25% | CS(=O)(=O)Nc1ccn(C(=O)N2CCN(Cc3ccc(Cl)cc3N3CCOCC3)CC2)n1 [Example 135, N-(1-(4-(4-chloro-2-morpholinobenzyl)piperazine-1-carbonyl)-1H-pyrazol-3-yl) methanesulfonamide]
100 to 1000 nM | ≥ 75% | 1000 to 10000 nM | 0 to 25% | CS(=O)(=O)Nc1ccn(C(=O)N2CCC3(CCCN3Cc3cccc(N4CCCC4)c3Cl)CC2)n1 [Example 141, N-(1-(1-(2-chloro-3-(pyrrolidin-1-yl)benzyl)-1,8-diazaspiro[4.5]decane-8-carbonyl)-1H-pyrazol-3-yl) methanesulfonamide]
